Measured values taken from PubChem BioAssay AID1963424 (Molecular Pharmacology Branch, DTP, NCI, 2024).

Tested on: 327498-153-R-J2-PDC complex spheroid growth, % test/control
Test: Anticancer human tumor 327498-153-R-J2-PDC patient-derived uterine carcinosarcoma cell line growth inhibition [Asc]
Conditions: for IC50: curve of first compound; for viability, T/C: stronger effect = lower value
Experimental: Multicellular complex tumor spheroid response to apoptosis pathway targeting inhibitors Alrizomadlin, Pelcitoclax, and Dasminapant in combination with a variety of drugs and investigational agents in selected tumor cell lines
The MDM2 inhibitor alrizomadlin, the Bcl-2/Bcl-xL inhibitor pelcitoclax, and the IAPs inhibitor dasminapant were evaluated both individually and in combination with standard of care and investigational anticancer small molecules within a complex spheroid model of solid tumors. . Complex spheroids include a stromal component modeled by human endothelial cells (HUVEC) and fibroblasts modeled by human mesenchymal stem cells (MSCs). The concentration ranges selected for each drug and investigational agent were based upon clinically achievable concentrations if the clinical Cmax of the agent was known.
Compounds. The drugs and investigational agents: alrizomadlin (APG-115; NSC831270), pelcitoclax (APG-1252; NSC835773), dasminapant (APG-1387;NSC834197), TAK-243 (NSC785004), copanlisib (NSC809693), olaparib (NSC753686), talazoparib (NSC767125), cobimetinib (NSC 768068), eltanexor (KPT-8602, NSC 794443), abemaciclib (NSC 768073), sotorasib (NSC818433), adagrasib (NSC 831453), MRTX-1133 (NSC 836407), Iadademestat (ORY1001, NSC 806812), and RMC-4630 (NSC839698), were obtained from the NCI Developmental Therapeutics Program Chemical Repository. The FDA-approved anticancer drug set is available from the Developmental Therapeutics Program at https://dtp.cancer.gov/organization/dscb/obtaining/available plates.htm. […] The stock solutions were prepared in dimethyl sulfoxide (DMSO, Sigma-Aldrich, St. Louis, MO, cat. D2650) at 800-fold the tested concentration and stored at -70 degrees C prior to their use. All drugs and investigational agents were tested over a range starting from a high concentration at or near the clinical Cmax and decreasing in half-log increments. If the clinical Cmax for an agent had not been determined, the highest concentration tested was 10 microM.
The patient-derived cancer (PDC) cell lines include five colon adenocarcinomas: 186277-243-T-J2-PDC, 616215-338-R-J1-PDC, 439559-082-T-J2-PDC, 463943-066-T-J2-PDC, and 519858-162-T-J1-PDC; three pancreatic carcinomas: 323965-272-R-J2-PDC, 521955-158-R6-J3-PDC, and 521955-158-R2-J5-PDC; two uterine sarcomas: 327498-152-R-J2-PDC and 993429-296-R-J1-PDC; two rhabdomyosarcomas: 755483-174-R-J1-PDC and 772245-204-R-J1-PDC; two soft tissue sarcomas: 126254-015-R-J1-PDC and 494315-158-R-J1-PDC; two malignant fibrous histiocytomas: 317291-083-R-J1-PDC and 596521-263-R-J1-PDC; two breast carcinomas: 171881-019-R-J1-PDC and 885512-296-R-J2-PDC; and one ovarian carcinoma: 6556581-035-R-J-PDC were obtained from the NCI PDMR, (https://pdmr.cancer.gov). The established cell lines HSSY-2 synovial sarcoma (RRID:CVCL 8719), SYO-1 synovial sarcoma (RRID:CVCL_7146), MPNST malignant peripheral neural sheath tumor were obtained from the Sloan Kettering Institute. The following established cell lines were purchased from the American Type Culture Collection (ATCC, Manassas, VA), Sor the received from the NCI repository:, PANC-1 pancreatic carcinoma (CRL-1469, RRID:CVCL_0480), OVCAR-5 ovarian carcinoma (RRID:CVCL_1628), OVCAR-8 ovarian carcinoma (RRID:CVCL_1629), , MCF-7 breast carcinoma (CRL-12584, RRID:CVCL_0031), MDA-MB-231 breast carcinoma (CRL-12532, RRID:CVCL_0062), NCI-H1876 small cell lung carcinoma (CRL-5902, RRID:CVCL_1503), NCI-H510A small cell lung carcinoma (HTB-184, RRID:CVCL_1565), NCI-H1417 (CRL-5869, RRID:CVCL_1469), and NCI-H196 small cell lung carcinoma (CRL-5823, RRID:CVCL_1509). Dr. Peter Houghton (Greehey Children's Cancer Research Institute, University of Texas Health Science Center, San Antonio, TX) provided Rh-18 rhabdomyosarcoma (RRID:CVCL_1659). Pooled donor human umbilical vein endothelial cells (HUVEC, Lonza, cat. CC-2519) and human mesenchymal stem cells (hMSC, Lonza, cat. PT-2501) were purchased from Lonza (Walkersville, MD).
Cell Culture. […]

[1] = second compound 0.03 µM, first compound 0.0316 µM
[2] = second compound 0.03 µM, first compound 0.1 µM
[3] = second compound 0.0949 µM, first compound 0.0316 µM
[4] = second compound 0.0949 µM, first compound 0.1 µM
[5] = second compound 0.3 µM, first compound 0.0316 µM
[6] = second compound 0.3 µM, first compound 0.1 µM
[7] = second compound 0.949 µM, first compound 0.0316 µM
[8] = second compound 0.949 µM, first compound 0.1 µM
[9] = second compound 3 µM, first compound 0.0316 µM
[10] = second compound 3 µM, first compound 0.1 µM
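Note: spheroids exposed to compound for 7 days after 3 days of growth.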
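Throughout, for viability, T/C: 100% = DMSO vehicle control wells.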

Structure (SMILES): C=CC(=O)N1CCN(c2nc(=O)n(-c3c(C)ccnc3C(C)C)c3nc(-c4c(O)cccc4F)c(F)cc23)C(C)C1 (stereo not given) + CCN1C(C(=O)NC23CCC(C(=O)O)(CC2)CC3)C(c2cccc(Cl)c2F)C2(C(=O)Nc3cc(Cl)ccc32)C12CCCCC2
- IC50 (second compound 0.03 µM): > 10000 nM
- IC50 (second compound 0.0949 µM): < 31.6 nM
- IC50 (second compound 0.3 µM): < 31.6 nM
- IC50 (second compound 0.949 µM): < 31.6 nM
- IC50 (second compound 3 µM): < 31.6 nM
- viability, T/C [1]: 80.2%
- viability, T/C [2]: 66.8%
- viability, T/C (second compound 0.03 µM, first compound 0.316 µM): 61.3%
- viability, T/C (second compound 0.03 µM, first compound 1 µM): 61%
- viability, T/C (second compound 0.03 µM, first compound 3.16 µM): 60.4%
- viability, T/C (second compound 0.03 µM, first compound 10 µM): 47.7%
- viability, T/C [3]: 48.1%
- viability, T/C [4]: 43.3%
- viability, T/C (second compound 0.0949 µM, first compound 0.316 µM): 39.1%
- viability, T/C (second compound 0.0949 µM, first compound 1 µM): 40.8%
- viability, T/C (second compound 0.0949 µM, first compound 3.16 µM): 31%
- viability, T/C (second compound 0.0949 µM, first compound 10 µM): 23.5%
- viability, T/C [5]: 25.8%
- viability, T/C [6]: 22.3%
- viability, T/C (second compound 0.3 µM, first compound 0.316 µM): 21.1%
- viability, T/C (second compound 0.3 µM, first compound 1 µM): 13.9%
- viability, T/C (second compound 0.3 µM, first compound 3.16 µM): 15.8%
- viability, T/C (second compound 0.3 µM, first compound 10 µM): 10.9%
- viability, T/C [7]: 6.85%
- viability, T/C [8]: 10.2%
- viability, T/C (second compound 0.949 µM, first compound 0.316 µM): 5.74%
- viability, T/C (second compound 0.949 µM, first compound 1 µM): 6.83%
- viability, T/C (second compound 0.949 µM, first compound 3.16 µM): 5.12%
- viability, T/C (second compound 0.949 µM, first compound 10 µM): 4.58%
- viability, T/C [9]: 2.47%
- viability, T/C [10]: 2.14%
- viability, T/C (second compound 3 µM, first compound 0.316 µM): 2.66%
- viability, T/C (second compound 3 µM, first compound 1 µM): 2.75%
- viability, T/C (second compound 3 µM, first compound 3.16 µM): 3.23%
- viability, T/C (second compound 3 µM, first compound 10 µM): 2.77%

Structure (SMILES): NC1CCC(NC2CC2c2ccccc2)CC1 (stereo not given) + CCN1C(C(=O)NC23CCC(C(=O)O)(CC2)CC3)C(c2cccc(Cl)c2F)C2(C(=O)Nc3cc(Cl)ccc32)C12CCCCC2
- IC50 (second compound 0.03 µM): > 100 nM
- IC50 (second compound 0.0949 µM): > 100 nM
- IC50 (second compound 0.3 µM): < 0.316 nM
- IC50 (second compound 0.949 µM): < 0.316 nM
- IC50 (second compound 3 µM): < 0.316 nM
- viability, T/C (second compound 0.03 µM, first compound 0.000316 µM): 103%
- viability, T/C (second compound 0.03 µM, first compound 0.001 µM): 94.5%
- viability, T/C (second compound 0.03 µM, first compound 0.00316 µM): 93.8%
- viability, T/C (second compound 0.03 µM, first compound 0.01 µM): 92.4%
- viability, T/C [1]: 103%
- viability, T/C [2]: 97.3%
- viability, T/C (second compound 0.0949 µM, first compound 0.000316 µM): 84.3%
- viability, T/C (second compound 0.0949 µM, first compound 0.001 µM): 84.4%
- viability, T/C (second compound 0.0949 µM, first compound 0.00316 µM): 83.4%
- viability, T/C (second compound 0.0949 µM, first compound 0.01 µM): 84.9%
- viability, T/C [3]: 83.9%
- viability, T/C [4]: 87.4%
- viability, T/C (second compound 0.3 µM, first compound 0.000316 µM): 53%
- viability, T/C (second compound 0.3 µM, first compound 0.001 µM): 47.9%
- viability, T/C (second compound 0.3 µM, first compound 0.00316 µM): 43.8%
- viability, T/C (second compound 0.3 µM, first compound 0.01 µM): 39.1%
- viability, T/C [5]: 49.8%
- viability, T/C [6]: 43.6%
- viability, T/C (second compound 0.949 µM, first compound 0.000316 µM): 10.8%
- viability, T/C (second compound 0.949 µM, first compound 0.001 µM): 12.7%
- viability, T/C (second compound 0.949 µM, first compound 0.00316 µM): 15.8%
- viability, T/C (second compound 0.949 µM, first compound 0.01 µM): 11.6%
- viability, T/C [7]: 14.7%
- viability, T/C [8]: 16.5%
- viability, T/C (second compound 3 µM, first compound 0.000316 µM): 4.55%
- viability, T/C (second compound 3 µM, first compound 0.001 µM): 5.4%
- viability, T/C (second compound 3 µM, first compound 0.00316 µM): 2.47%
- viability, T/C (second compound 3 µM, first compound 0.01 µM): 7.42%
- viability, T/C [9]: 5.29%
- viability, T/C [10]: 4.14%
